# Measurements: ChEMBL document CHEMBL2434909, “In vitro antimalarial activity, β-haematin inhibition and structure-activity relationships in a series of quinoline triazoles” (Eur J Med Chem, 2013)
# Experiments:
# [1] = Inhibition of NP-40-induced beta-haematin formation after 5 to 6 hrs hrs by UV-vis spectroscopic analysis; type: physicochemical
# [2] = tested on: CHO; experiment: Cytotoxicity against CHO cells by MTT assay; type: cell-based; conditions: Cricetulus griseus
Structure (SMILES),IC50 [1] [µM],IC50 [2] [µM]
CCN(CC)Cc1cc(Nc2ccnc3cc(Cl)ccc23)ccc1O,6.8,–
CCN(CC)CCCC(C)Nc1ccnc2cc(Cl)ccc12 (stereo not drawn) [CHLOROQUINE],18.2,–
CC[C@H]1CN2CCc3cc(OC)c(OC)cc3[C@@H]2C[C@@H]1C[C@H]1NCCc2cc(OC)c(OC)cc21 [EMETINE],–,0.041
